ChEMBL document CHEMBL1128585, “Synthesis and antiviral activity of 6-benzyl analogs of 1-[(2-hydroxyethoxy)methyl]-6-(phenylthio)thymine (HEPT) as potent and selective anti-HIV-1 agents” (J Med Chem, 1995)

What was measured:
[1] = Effective concentration required to achieve 50% protection of MT-4 cells against the cytopathic effect of HIV-1 virus.; format: functional, cell-based; conditions: Human immunodeficiency virus 1, MT4
[2] = system: MT4; experiment: Cytotoxic concentration required to reduce the viability of mock-infected MT-4 cells by 50%; format: functional; conditions: Homo sapiens
[3] = system: MT4; experiment: The cytotoxic concentration of compound required to reduce the viability of mock-infected MT-4 cells by 50% on HIV-1 virus LAV-2ROD strain; format: functional; conditions: Homo sapiens
[4] = system: MT4; experiment: The cytotoxic concentration of compound required to reduce the viability of mock-infected MT-4 cells by 50% on HIV-1 virus A012D strain; format: functional; conditions: Homo sapiens
[5] = system: MT4; experiment: The effective concentration required to achieve 50% protection of MT-4 cells against the cytopathic effect of HIV-1 virus A012D strain; format: functional, cell-based; conditions: Homo sapiens
[6] = species on record: Homo sapiens; experiment: The cytotoxic concentration of compound required to reduce the viability of mock-infected PBL cells by 50% on HIV-1 virus HTLV-IIIB strain; format: functional
[7] = species on record: Mus musculus; experiment: Reduced GM-CSF dependent colony formation in murine bone marrow progenitor cells at 5uM; format: functional
[8] = species on record: Mus musculus; experiment: Reduced IL-3 dependent colony formation in murine bone marrow progenitor cells at 0.05 uM; format: functional
[9] = species on record: Mus musculus; experiment: Reduced GM-CSF dependent colony formation in murine bone marrow progenitor cells at 0.5 uM; format: functional
[10] = species on record: Mus musculus; experiment: Reduced IL-3 dependent colony formation in murine bone marrow progenitor cells at 0.5 uM; format: functional
[11] = species on record: Mus musculus; experiment: Reduced IL-3 dependent colony formation in murine bone marrow progenitor cells at 50 uM; format: functional
[12] = species on record: Mus musculus; experiment: Reduced GM-CSF dependent colony formation in murine bone marrow progenitor cells at 0.05 uM; format: functional
[13] = species on record: Homo sapiens; experiment: The effective concentration required to achieve 50% protection of human peripheral blood lymphocytes against the cytopathic effect of HIV-1 virus HTLV-IIIB strain; format: functional, organism-based
[14] = species on record: Mus musculus; experiment: Reduced IL-3 dependent colony formation in murine bone marrow progenitor cells at 5uM; format: functional
[15] = species on record: Mus musculus; experiment: Reduced GM-CSF dependent colony formation in murine bone marrow progenitor cells at 50 uM; format: functional
[16] = species on record: Mus musculus; experiment: Reduced IL-3 dependent colony formation in murine bone marrow progenitor cells at 5 uM; format: functional
[17] = system: MT4; experiment: The effective concentration required to achieve 50% protection of MT-4 cells against the cytopathic effect of HIV-2 virus LAV-2ROD; format: functional, cell-based; conditions: Homo sapiens
[18] = species on record: Mus musculus; experiment: Reduced GM-CSF dependent colony formation in murine bone marrow progenitor cells at 5 uM; format: functional

Compound	EC50 [1] [µM]	CC50 [2] [µM]	further results
Cc1cc(C)cc(Cc2c(C(C)C)c(=O)[nH]c(=O)n2COCCO)c1	0.0027	221	
CC(C)c1c(Cc2ccccc2)n(COCCO)c(=O)[nH]c1=O	0.063	295	
CCOCn1c(Cc2ccccc2)c(CC)c(=O)[nH]c1=O	0.041	245	
CCOCn1c(Cc2cc(C)cc(C)c2)c(CC)c(=O)[nH]c1=O	0.0016	207	
CCc1c(Cc2cc(C)cc(C)c2)n(COCCO)c(=O)[nH]c1=O	0.013	281	
Cc1cn([C@H]2C[C@H](N=[N+]=[N-])[C@@H](CO)O2)c(=O)[nH]c1=O [ZIDOVUDINE]	0.003	7.8	CC50 [3]: 7.8 µM; CC50 [4]: 7.8 µM; EC50 [5]: 0.3 µM; CC50 [6]: 12 µM; Colony_count [7]: 47; Colony_count [8]: 141; Colony_count [9]: 70; Colony_count [10]: 109; Colony_count [11]: 10; Colony_count [12]: 85; EC50 [13]: 0.002 µM; Colony_count [14]: 74; Colony_count [15]: 14
CCOCn1c(Cc2ccccc2)c(C(C)C)c(=O)[nH]c1=O [EMIVIRINE]	0.0042	186	CC50 [3]: 102 µM; CC50 [4]: 102 µM; Colony_count [16]: 137; EC50 [5]: 0.003 µM; EC50 [17]: > 102 µM; Colony_count [18]: 77; CC50 [6]: 90 µM; Colony_count [8]: 136; Colony_count [9]: 75; Colony_count [10]: 137; Colony_count [11]: 109; Colony_count [12]: 89; EC50 [13]: 0.004 µM; Colony_count [15]: 57
CCOCn1c(Cc2cc(C)cc(C)c2)c(C(C)C)c(=O)[nH]c1=O	0.0006	43	
CCCCn1c(Cc2ccccc2)c(CC)c(=O)[nH]c1=O	0.21	> 500	
Cc1c(-c2ccccc2)n(COCCO)c(=O)[nH]c1=O	> 166	166	
CCc1c(Cc2ccccc2)n(CCOC)c(=O)[nH]c1=O	0.25	362	
CCCCn1c(Cc2ccccc2)c(C(C)C)c(=O)[nH]c1=O	0.042	58	
COCCn1c(Cc2ccccc2)c(C(C)C)c(=O)[nH]c1=O	0.052	195	
Cc1c(Cc2ccccc2)n(COCCO)c(=O)[nH]c1=O	23		
Cc1c(CCc2ccccc2)n(COCCO)c(=O)[nH]c1=O	> 444	444	
Cc1c(Sc2ccccc2)n(COCCO)c(=O)[nH]c1=O [HEPT]	7	740	
CCc1c(Cc2ccccc2)n(COCCO)c(=O)[nH]c1=O	0.35	391	
